From ChEMBL document CHEMBL1201862, “PubChem BioAssay data set” (2004)
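1) Cells in 96-well plates. 2) Compound, 48 h, 5 concentrations. 3) Linear interpolation between surrounding doses. 4) Unreached endpoint = highest concentration. GI50 is the concentration that inhibits growth by half.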 Calls of active or inactive are those of the source. No stated cut-off is given here; in the data, active = GI50 up to about 1.1 µM and inactive = higher.

Assays:
Test in all cases: DTP human tumour cell line panel, 48 h
SW-620 = test system: SW-620
EKVX = test system: EKVX
RPMI-8226 = test system: RPMI-8226
SK-OV-3 = test system: SK-OV-3
SNB-75 = test system: SNB-75
OVCAR-5 = test system: OVCAR-5
SR = test system: SR
NCI-H460 = test system: NCI-H460
COLO 205 = test system: COLO 205
A549 = test system: A549
U-251 = test system: U-251
NCI-H226 = test system: NCI-H226
A498 = test system: A498
M14 = test system: M14
UO-31 = test system: UO-31
HOP-62 = test system: HOP-62
SK-MEL-28 = test system: SK-MEL-28
Hs-578T = test system: Hs-578T
CCRF-CEM = test system: CCRF-CEM

SMILES | GI50 (SW-620) | GI50 (EKVX) | GI50 (RPMI-8226) | GI50 (SK-OV-3) | GI50 (SNB-75) | GI50 (OVCAR-5) | GI50 (SR) | GI50 (NCI-H460) | GI50 (COLO 205) | GI50 (A549) | GI50 (U-251) | GI50 (NCI-H226) | GI50 (A498) | GI50 (M14) | GI50 (UO-31) | GI50 (HOP-62) | GI50 (SK-MEL-28) | GI50 (Hs-578T) | GI50 (CCRF-CEM)
O=C1c2ccccc2C(=O)c2c(NC(=O)c3ccc4c5c(ncnc35)-c3ccccc3C4=O)cccc21 | > 100 µM (inactive) | > 100 µM (inactive) | > 100 µM (inactive) | 23.2 µM (inactive) | 18.7 µM (inactive) | > 100 µM (inactive) | 91.4 µM (inactive) | > 100 µM (inactive) | > 100 µM (inactive) | > 100 µM (inactive) | 31 µM (inactive) | > 100 µM (inactive) | 40.6 µM (inactive) | > 100 µM (inactive) | > 100 µM (inactive) | 14.7 µM (inactive) | > 100 µM (inactive) | 57.1 µM (inactive) | –
NCC(=O)Nc1ccccc1 | > 100 µM (inactive) | > 100 µM (inactive) | – | – | > 100 µM (inactive) | > 100 µM (inactive) | > 100 µM (inactive) | > 100 µM (inactive) | – | > 100 µM (inactive) | > 100 µM (inactive) | > 100 µM (inactive) | > 100 µM (inactive) | > 100 µM (inactive) | > 100 µM (inactive) | > 100 µM (inactive) | > 100 µM (inactive) | > 100 µM (inactive) | –
CCOC(=O)c1nc2cc(F)c(F)cc2nc1NCc1cc(OC)c(OC)c(OC)c1 | > 100 µM (inactive) | > 100 µM (inactive) | – | > 100 µM (inactive) | 16.5 µM (inactive) | 54.2 µM (inactive) | > 100 µM (inactive) | > 100 µM (inactive) | > 100 µM (inactive) | > 100 µM (inactive) | 35.9 µM (inactive) | – | > 100 µM (inactive) | > 100 µM (inactive) | 63.7 µM (inactive) | 38.5 µM (inactive) | > 100 µM (inactive) | 50.7 µM (inactive) | > 100 µM (inactive)
O=c1nc(N2CCCCC2)sc2[nH]c3ccccc3c12 | > 100 µM (inactive) | > 100 µM (inactive) | 40.9 µM (inactive) | > 100 µM (inactive) | > 100 µM (inactive) | 11.1 µM (inactive) | > 100 µM (inactive) | 98.2 µM (inactive) | > 100 µM (inactive) | > 100 µM (inactive) | 96.4 µM (inactive) | – | > 100 µM (inactive) | 34.8 µM (inactive) | 24.8 µM (inactive) | 36.2 µM (inactive) | > 100 µM (inactive) | > 100 µM (inactive) | –
CCOC(=O)CCC(NC(=O)OCc1ccccc1)C(=O)NC(CCC(=O)OCC)C(=O)NC(CCC(=O)OCC)C(=O)NNC(=O)OC(C)(C)C (stereo unspecified) | > 100 µM (inactive) | > 100 µM (inactive) | > 100 µM (inactive) | – | > 100 µM (inactive) | > 100 µM (inactive) | > 100 µM (inactive) | > 100 µM (inactive) | > 100 µM (inactive) | > 100 µM (inactive) | > 100 µM (inactive) | > 100 µM (inactive) | > 100 µM (inactive) | > 100 µM (inactive) | > 100 µM (inactive) | > 100 µM (inactive) | > 100 µM (inactive) | > 100 µM (inactive) | 49 µM (inactive)
Cc1ccc(N2C(=O)C3c4[nH]c5ccccc5c4C4CCC(C(C)(C)C)CC4C3C2=O)cc1 (stereo unspecified) | > 26.1 µM (inactive) | 13.6 µM (inactive) | 8.85 µM (inactive) | 14.9 µM (inactive) | – | 14.1 µM (inactive) | 6.05 µM (inactive) | 6.46 µM (inactive) | 8.95 µM (inactive) | 10.1 µM (inactive) | 4.49 µM (inactive) | 17.4 µM (inactive) | 16.2 µM (inactive) | 13.6 µM (inactive) | 14.9 µM (inactive) | 5.38 µM (inactive) | 18.3 µM (inactive) | 4.1 µM (inactive) | 5.36 µM (inactive)
CCn1c(=O)c2c3cc(O)ccc3oc2c2ccc(O)cc21 | 31.3 µM (inactive) | 24.7 µM (inactive) | – | 43.6 µM (inactive) | 22.9 µM (inactive) | – | 18.2 µM (inactive) | 26.9 µM (inactive) | 17.5 µM (inactive) | 24.4 µM (inactive) | 22.9 µM (inactive) | 37.1 µM (inactive) | 18.9 µM (inactive) | 31.2 µM (inactive) | 19.3 µM (inactive) | 28.8 µM (inactive) | 35.8 µM (inactive) | 5.46 µM (inactive) | 21.1 µM (inactive)
COc1ccc2c(c1)CCN1CCCc3ccc(OC)cc3C21 (stereo unspecified) | 76.7 µM (inactive) | > 100 µM (inactive) | 31.6 µM (inactive) | 77.4 µM (inactive) | 16.4 µM (inactive) | 89.9 µM (inactive) | 41.5 µM (inactive) | – | 44.4 µM (inactive) | 75 µM (inactive) | 58.9 µM (inactive) | 38.5 µM (inactive) | 84.5 µM (inactive) | 24.2 µM (inactive) | 22.5 µM (inactive) | 67.9 µM (inactive) | > 100 µM (inactive) | 48.1 µM (inactive) | 42.6 µM (inactive)
CN(CCN1CCCC1)C1CCc2cc(Cl)c(Cl)cc2C1 (stereo unspecified) | 23.9 µM (inactive) | 20.6 µM (inactive) | 17.2 µM (inactive) | 17.5 µM (inactive) | – | 15.3 µM (inactive) | 20.5 µM (inactive) | 16.6 µM (inactive) | 3.6 µM (inactive) | 16.6 µM (inactive) | 16.1 µM (inactive) | 16.2 µM (inactive) | 13.2 µM (inactive) | 15 µM (inactive) | 13.2 µM (inactive) | 17.4 µM (inactive) | 18.5 µM (inactive) | 29.9 µM (inactive) | 26.4 µM (inactive)
CSc1cnn(CCC#N)c(=O)n1 | 74.6 µM (inactive) | > 100 µM (inactive) | > 100 µM (inactive) | > 100 µM (inactive) | 84.9 µM (inactive) | > 100 µM (inactive) | 40.9 µM (inactive) | – | > 100 µM (inactive) | > 100 µM (inactive) | > 100 µM (inactive) | > 100 µM (inactive) | 74 µM (inactive) | > 100 µM (inactive) | > 100 µM (inactive) | > 100 µM (inactive) | > 100 µM (inactive) | > 100 µM (inactive) | 31 µM (inactive)
NS(=O)(=O)c1nc(S(=O)(=O)O)c2[nH]cnc2n1 | > 100 µM (inactive) | > 100 µM (inactive) | > 100 µM (inactive) | > 100 µM (inactive) | > 100 µM (inactive) | > 100 µM (inactive) | > 100 µM (inactive) | > 100 µM (inactive) | > 100 µM (inactive) | > 100 µM (inactive) | > 100 µM (inactive) | > 100 µM (inactive) | > 100 µM (inactive) | > 100 µM (inactive) | > 100 µM (inactive) | > 100 µM (inactive) | > 100 µM (inactive) | > 100 µM (inactive) | –
O=C(/C(=C\C(=O)c1cccs1)c1ccsc1)c1ccc(Br)cc1 | > 100 µM (inactive) | 92.5 µM (inactive) | 71.1 µM (inactive) | > 100 µM (inactive) | > 100 µM (inactive) | – | > 100 µM (inactive) | > 100 µM (inactive) | > 100 µM (inactive) | > 100 µM (inactive) | > 100 µM (inactive) | > 100 µM (inactive) | > 100 µM (inactive) | > 100 µM (inactive) | > 100 µM (inactive) | > 100 µM (inactive) | > 100 µM (inactive) | > 100 µM (inactive) | > 100 µM (inactive)
CC(=O)/C(=C\Nc1c(C)n(C)n(C)c1=O)C(=O)c1ccccc1 | > 50 µM (inactive) | > 50 µM (inactive) | > 50 µM (inactive) | > 50 µM (inactive) | – | > 50 µM (inactive) | > 50 µM (inactive) | > 50 µM (inactive) | > 50 µM (inactive) | > 50 µM (inactive) | > 50 µM (inactive) | > 50 µM (inactive) | > 50 µM (inactive) | > 50 µM (inactive) | > 50 µM (inactive) | > 50 µM (inactive) | > 50 µM (inactive) | > 50 µM (inactive) | > 50 µM (inactive)
O=C1CC2CC(CC3(CO3)C2)C1F (stereo unspecified) | – | > 100 µM (inactive) | > 100 µM (inactive) | > 100 µM (inactive) | 48.2 µM (inactive) | > 100 µM (inactive) | > 100 µM (inactive) | > 100 µM (inactive) | > 100 µM (inactive) | > 100 µM (inactive) | > 100 µM (inactive) | > 100 µM (inactive) | > 100 µM (inactive) | > 100 µM (inactive) | > 100 µM (inactive) | > 100 µM (inactive) | > 100 µM (inactive) | > 100 µM (inactive) | > 100 µM (inactive)
CCC(C)N1CN(c2ccccc2)C2(CCN(CCCC(=O)c3ccc(F)cc3)CC2)C1=O (stereo unspecified) | 3.77 µM (inactive) | 10.8 µM (inactive) | 5.52 µM (inactive) | 9.29 µM (inactive) | 19.5 µM (inactive) | 0.839 µM (active) | 5.98 µM (inactive) | – | 0.193 µM (active) | 6.03 µM (inactive) | 4.47 µM (inactive) | – | 2.82 µM (inactive) | 14.3 µM (inactive) | 4.17 µM (inactive) | 1.87 µM (inactive) | 17.4 µM (inactive) | 13.7 µM (inactive) | 0.64 µM (active)
COc1ccc(/C=C2\C(=O)N(C3OC(COC(C)=O)C(OC(C)=O)C(OC(C)=O)C3OC(C)=O)c3ccccc3N=C2N)cc1 (stereo unspecified) | 30.7 µM (inactive) | 26.8 µM (inactive) | 16 µM (inactive) | 27.6 µM (inactive) | 23.2 µM (inactive) | 33.9 µM (inactive) | 5.37 µM (inactive) | 25.1 µM (inactive) | 15.6 µM (inactive) | 29.2 µM (inactive) | 27.1 µM (inactive) | – | 28.2 µM (inactive) | 20.7 µM (inactive) | 32.4 µM (inactive) | 28.9 µM (inactive) | 23.9 µM (inactive) | 34.6 µM (inactive) | 16.8 µM (inactive)
